Experimental data reported in paper PMC6030077, “Dual role of HDAC10 in lysosomal exocytosis and DNA repair promotes neuroblastoma chemoresistance” (Scientific Reports, 2018).

Legend:
Type in all cases: cell-based, human
BE(2)-C cells [1] = test: Flow cytometric analysis of cell surface LAMP-1 (lysosomal exocytosis); settings: 6 h tubastatin A 7.5 µM, bufexamac 30 µM, tubacin 7.5 µM, vacuolin-1 10 µM 1 h
Method: (§1) Cells were dissociated from dishes using non-enzymatic cell dissociation reagent for five minutes. Cells were counted using a ViCell XR automatic cell counter (Beckmann Coulter) and 2.5 ∗ 10^5 cells were transferred into a pre-cooled 96-well round bottom plate (TPP92097). Cells were stained for 1.5–2 hours on ice with primary anti P-gp (Biozol ABA-AB00143-1.1), LAMP-1 (H4A3, DHSB) antibody or isotype control (DLN-05794, Dianova, Barcelona, Spain) and for 1 hour with APC-labeled secondary antibody (Dianova 115-136-068). Cells were washed three times in FACS buffer (5% FBS in PBS) after each antibody incubation step. For evaluation of DNA double-strand breaks, cells were detached from dishes using trypsin, counted using a ViCell XR automatic cell counter (Beckmann Coulter) and transferred into a pre-cooled 96-well round bottom plate (4 ∗ 10^6 cells/well). Cells were fixed and permeabilized using the eBioscience^TM Foxp3/Transcription Factor Staining Buffer Set (Thermo Fisher Scientific). Cells were stained for 1.5 h with Phospho-Histone H2A.X (S139) primary antibody (CST #9718) and for 1 h in Alexa-488-labeled secondary antibody (ThermoFisher A-11008). Cells were washed three times in 1× permeabilization buffer after each antibody incubation step and fluorescence was quantified on a BD FACSCanto II platform.

IMR-32 cells = test: Flow cytometric quantification of intracellular doxorubicin accumulation, IMR-32; settings: 50 ng/ml doxorubicin +/− 7.5 µM tubastatin A, 18 h
Method: For flow cytometric quantification of intracellular doxorubicin after HDAC6/10 inhibition, BE(2)-C, SK-N-AS, IMR-32, HAP1 wild type and HDAC10 knockout cells were seeded in 6-well dishes at a density of 1.5 ∗ 10^5 cells/well (BE(2)-C and SK-N-AS, HAP1) and 3 ∗ 10^5 cells/well (IMR-32). Cells were treated with 25 ng/ml, 50 ng/ml, 100 ng/ml or 1 µg/ml doxorubicin, respectively, for 3–48 h (see respective figure legend). Where indicated, cells were co-treated with HDAC6/10 or lysosomal inhibitors. In case of co-treatment with vacuolin-1, vacuolin-1 was directly added to cells under doxorubicin treatment 1 h or 24 h prior to analysis. Flow cytometric quantification of intracellular doxorubicin after HDAC6, HDAC10 or P-glycoprotein knockdown in BE(2)-C cells was performed 5 days (P-glycoprotein) or 6 days (HDAC6/10) after transfection with siRNA. To that end, cells were seeded 3–4 days after transfection into 6-well dishes at 1.5 ∗ 10^5 cells per well and treated with 100 ng/ml doxorubicin +/− HDAC6/10 and lysosomal inhibitors for the last 24 h. After doxorubicin treatment, BE(2)-C, SK-N-AS, IMR-32 and HAP1 cells were washed with ice-cold RPMI w/o phenol-red and detached using Trypsin/EDTA for 3 minutes at 37 °C. Cells were centrifuged, resuspended in RPMI w/o phenol red and doxorubicin fluorescence was quantified on a BD FACSCanto II platform using the PE filter setting.

BE(2)-C cells [2] = test: Colony formation assay; settings: treated for 24 h, 11 more days growth
Method: RNA isolation and real-time RT-PCR
RNA was isolated from neuroblastoma cell lines using the RNeasy MiniKit (Qiagen) according to
manufacturer's instructions. Real-time RT-PCR was performed as described in1. Data were normalized
to neuroblastoma housekeeping genes SDHA and […] and depicted as fold change relative to
negative control. The following primer pairs were used: HPRT (hypoxanthine
phosphoribosyltransferase 1, forward: 5′-[…]-3′ reverse: 5′-
-3′, ABCB1 (P-GP), forward: 5'-[…]-
3', reverse: 5'-[…]-3' , SDHA (succinate dehydrogenase complex,
subunit A, forward: 5′-[…]-3′, reverse: 5′-
BE(2)-C cells were seeded on 6-well plates at a density of 800 cells per well and treated as indicated
for 24 hours. After 24 hours, drugs were washed out and cells were allowed to grow for 11 more days
before staining of viable cell colonies with crystal violet (1 % crystal violet (w/v) in 70% ethanol). For
quantification, the plates were scanned, and colonies were counted in […] binary pictures with the
ITCN plugin for ImageJ software (U. S. National Institutes of Health, Bethesda, MD,
USA; http://imagej.nih.gov/ij/).

HDAC6 = test: Western blot analysis of tubulin K40 acetylation as a marker for HDAC6 inhibition; settings: 24 h; bufexamac 30 µM, tubastatin A 7.5 µM, tubacin 7.5 µM
Method: Western blot analysis was performed as previously described. The following antibodies were used: anti-HDAC6 (sc-11420, Santa Cruz), anti-HDAC10 (H3413, Sigma), anti-acetylated histone H3 (06-911, Merck Millipore), anti-histone H3 (9715, Cell Signaling Technology, Cambridge UK), anti-LAMP-1 (H4A3, DHSB, Iowa City, IA, USA), anti-LAMP-2 (H4B4; Santa Cruz Biotechnology), anti-acetylated tubulin (6–11B-1; Sigma), anti-tubulin (2148, Cell Signaling Technology), anti P-glycoprotein (13978 S, Cell Signaling Technology) and anti-β-actin (clone AC-15; Sigma).

BE(2)-C cells [3] = test: Flow cytometric analysis of γH2A.X staining (DNA double-strand breaks); settings: 24 h, tubastatin A 7.5 µM, vacuolin-1 10 µM
Method: as §1, with “Cells were stained for 1.5–2 hours on ice with primary anti P-gp (Biozol ABA-AB00143-1.1), LAMP-1 (H4A3, DHSB) antibody or isotype control (DLN-05794, Dianova, Barcelona, Spain) and for 1 hour with APC-labeled secondary antibody (Dianova 115-136-068).” left out, “Cells were stained for 1.5 h with Phospho-Histone H2A.X (S139) primary antibody (CST #9718) and for 1 h in Alexa-488-labeled secondary antibody (ThermoFisher A-11008).” left out

SMILES: CN1CCc2c(c3ccccc3n2Cc2ccc(C(=O)NO)cc2)C1 [tubastatin A]
- cell surface LAMP-1 levels (BE(2)-C cells [1]): reduced surface LAMP-1 levels
- doxorubicin accumulation, IMR-32 (IMR-32 cells): increased accumulation of doxorubicin
- growth of BE(2)-C cells in colony assays, combination with doxorubicin (BE(2)-C cells [2]): effectively reduce growth
- HDAC6 inhibition (tubulin K40 acetylation) (HDAC6): substantially inhibited HDAC6
- DSBs (γH2A.X), co-treatment with doxorubicin compared to doxorubicin alone (BE(2)-C cells [3]; 100 ng/ml doxorubicin): significantly increased the amount of DSBs
- DSBs (γH2A.X), treatment alone in the absence of doxorubicin (BE(2)-C cells [3]; verapamil 10 µM): increase DSBs
